Where “and” joins values, the source holds several entries; their conditions need not be identical. Identical values can stand only once. Like-named read-outs stand apart in the source and are kept apart here. No end group written: not given here. Acr = acridine on the lysine ε-amine
Assays:
Erythrocytes = test: RBC hemolysis assay; format: cell-based, mice
Experimental: Whole blood was obtained from male ICR mice by heart puncture with heparinized 22 G needles and collected in conical tubes containing 10 ml of 0.15 M PBS (pH 7.4) prewarmed to 37° C. Erythrocytes were immediately separated from plasma by centrifugation at 2000 rpm for 2 min, washed three times with 10 ml of PBS, and then diluted to 1.5×10^8 cells/ml. Peptides were prepared at 15 μM and serially diluted to 10-0.01 μM, after which 100 μl was pipetted in triplicate into a MultiScreenHTS BV 96 well plate. Erythrocytes (50 μl, 7.5×10^6 cells) were added to the peptides and incubated at 37° C. for 1 h followed by filtration on a Multiscreen vacuum manifold (Millipore Corporation, Billerica, Mass.). The filtrate was measured for Abs410nm on a Biotech plate reader (Biotech Instruments Incorporated., Winooski, Vt.) and compared to the 100% hemolysis caused by replacing PBS with water. Peptide DNA polyplexes (1.5 nmols and 7.5 μg pGL3) were also assayed for hemolysis as described above.

[1] = QELS particle size and zeta potential of polyacridine-melittin polyplexes; format: physicochemical; details: mean particle size of peptide-DNA polyplex, 0.5 nmol of peptide per μg of DNA
Experimental: Particle size and zeta potential were determined by preparing 2 ml of polyplex in 5 mM Hepes pH 7.5 at a DNA concentration of 30 μg/ml with 15 nmols/ml of peptide (0.5 nmol of peptide per μg of DNA). Particle size was measured by quasi-elastic light scattering (QELS) at a scatter angle of 90° on a Brookhaven ZetaPlus particle sizer (Brookhaven Instruments Corporation, NY). The zeta potential was determined as the mean of ten measurements immediately following acquisition of the particle size.

[2] = system: HepG2, 3T3, and CHO cells; test: in vitro gene transfer (luciferase) in three cell lines; format: cell-based; details: all three cell lines; 0.5 nmol per μg of pGL3
Experimental: HepG2 cells (5×10^5) were plated on 6×35 mm wells and grown to approximately 50% confluency. Transfections were performed in MEM supplemented with 2% FBS, sodium pyruvate (1 mM), and penicillin and streptomycin (100 U and 100 μg/mL). Polyplexes were prepared at a DNA concentration of 30 μg/ml and a stoichiometry of 0.5 nmol peptide per μg of DNA in Hepes buffered mannitol (HBM). Polyplexes (10 μg of DNA in 0.3 ml of HBM) were added drop wise to wells in triplicate. After 24 hrs, the cells were washed twice with 2 ml of ice-cold phosphate-buffered saline (Ca^2+- and Mg^2+-free) and then treated with 0.5 ml of lysis buffer (25 mM Tris Chloride, pH 7.8, 1 mM EDTA, 8 mM magnesium chloride, and 1% Triton X-100) for 10 min at 4° C. Cell lysates were scraped, transferred to 1.5 mL microcentrifuge tubes, and centrifuged for 10 min at 13,000 g at 4° C. to pellet cell debris. Lysis buffer (300 μL), sodium-ATP (4.3 μL of a 165 mM solution at pH 7, 4° C.) were combined in a test tube, mixed briefly, and immediately placed in the luminometer. Luciferase relative light units were measured by a Lumat LB 9501 (Berthold Systems, Germany) with 10 s integration after automatic injection of 100 μL of 0.5 mM D-luciferin. […] Protein concentrations were measured by a BCA assay using bovine serum albumin as a standard. […]

DNA = DNA band shift and thiazole orange displacement assays of cysteine-flanked acridinylated peptides; format: binding
Experimental: CKacrKKacrC (SEQ ID NO: 103), CKacrRKacrC (SEQ ID NO: 104), CKacrLKacrC (SEQ ID NO: 105), and CKacrFKacrC (SEQ ID NO: 106) (where Kacr is a lysine modified with acridine at the ε-amine) (FIG. 33, Formula VII) were synthesized by SPPS and purified while monitoring the absorbance of acridine at 409 nm. Monomers were evaluated for DNA affinity by DNA band shift and thiazole orange displacement assays. DNA complexes with monomers were also evaluated for particle size and ζ-potential. […] Buffered incubations of monomer at pH 8.0 were used to encourage polymerization of peptides and poly-CKacrKKacrC (SEQ ID NO: 103) and poly-CKacrRKacrC (SEQ ID NO: 104) have been isolated.

[3] = molecular target: human DC-SIGN (Dendritic Cell-Specific Intracellular adhesion molecule-3 Grabbing Non-integrin) receptor, stably transfected in CHO cells (human) (UniProt Q9NNX6); test: cell-based or functional assay
[4] = molecular target: human DC-SIGN (Dendritic Cell-Specific Intracellular adhesion molecule-3 Grabbing Non-integrin) receptor, stably transfected in CHO cells (human) (UniProt Q9NNX6); test: FACS of DC-SIGN CHO (+) and (-) cells after 24 hr with Cy5-DNA glycopeptide polyplex
[5] = molecular target: human DC-SIGN (Dendritic Cell-Specific Intracellular adhesion molecule-3 Grabbing Non-integrin) receptor, stably transfected in CHO cells (human) (UniProt Q9NNX6); test: FACS of DC-SIGN CHO (+) and (-) cells after 24 hr at 37 C with Cy5-DNA glycopeptide polyplex
pGL3 [6] = test: Man 9 glycopeptide DNA band shift assay; format: binding; details: agarose gel
Experimental: pGL3 (1 μg) was combined with 0.05, 0.2, 0.5, and 1 nmol of Man 9 glycopeptide. Each sample was incubated for 30 min before loading onto an agarose gel, that was electrophoresed at 80 V for 60 min (Adami, R. C., Collard, W. T., Gupta, S. A., Kwok, K. Y., Bonadio, J., and Rice, K. G. (1998) Stability of Peptide-Condensed Plasmid DNA Formulations. Journal of Pharmaceutical Sciences 87, 678-683). The gel was stained with 0.1 mg per ml of ethidium bromide at 4° C. for 24 hrs, then photographed while illuminating on a transilluminator.

pGL3 [7] = test: thiazole orange displacement assay of Man 9 glycopeptide; format: binding; details: pGL3 1 μg, 40 nM thiazole orange
Experimental: A control sample of pGL3 (1 μg) was combined with 40 nM thiazole orange in a total volume of 500 μl of 5 mM Hepes buffer pH 7.4. The Man 9 glycopeptide (0.2, 0.3, 0.4, 1 and 2 nmol) or Cys-(Acr-Lys)4 peptide (SEQ ID NO: 23) was added to pGL3 (1 μg) samples containing thiazole orange, and incubated for 30 min, followed by measuring the fluorescence intensity at excitation 500 nm and emission 530 nm (Wadhwa, M. S., Collard, W. T., Adami, R. C., McKenzie, D. L., and Rice, K. G. (1997) Peptide-mediated gene delivery: influence of peptide structure on gene expression. Bioconjugate Chemistry 8, 81-8). The percent fluorescence intensity relative to control was plotted versus the stoichiometry of glycopeptide or peptide added to DNA to determine the equivalence point.

[8] = system: DC-SIGN (+) and (−) CHO cells; test: Cy5-DNA glycopeptide polyplex uptake by FACS; format: cell-based, human; details: 24 hr 37° C.
Experimental: pGL3 plasmid (5 μg) was labeled with Label IT according to the manufacturer's instructions to prepare Cy5-DNA. The Man 9 glycopeptide (0.5 nmol) was combined with 1 μg Cy5-DNA in 60 μl of water and incubated for 30 min to form a polyplex. DC-SIGN (+) and (−) CHO cells (1×10^6) (Granelli-Pipemo, A., Pritsker, A., Pack, M., Shimeliovich, I., Arrighi, J. F., Park, C. G., Trumpfheller, C., Piguet, V., Moran, T. M., and Steinman, R. M. (2005) Dendritic Cell Specific Intercellular Adhesion Molecule 3-Grabbing Nonintegrin/CD209 Is Abundant on Macrophages in the Normal Human Lymph Node and Is Not Required for Dendritic Cell Stimulation of the Mixed Leukocyte Reaction. J Immunology 7, 4260-4273) were each plated in triplicate in 35 mm wells and grown in DMEM supplemented with 7% FBS and 1% nonessential amino acids for 24 hrs. CHO (+) and (−) cells were transfected for 24 hrs with 1 μg of Cy5-DNA polyplex. The CHO cells were lifted by treatment with 5 ml of 1 mM EDTA in PBS and concentrated by centrifugation by 2,000×g, before diluting to a final volume of 1 ml in PBS. The transfected CHO (+) and (−) cells were analyzed by FACS on a Becton Dickson LSRII with excitation 488 nm and emission 575 nm, and compared to untransfected CHO cells.

UniProt Q9NNX6, sequence (Q9NNX6 whole entry): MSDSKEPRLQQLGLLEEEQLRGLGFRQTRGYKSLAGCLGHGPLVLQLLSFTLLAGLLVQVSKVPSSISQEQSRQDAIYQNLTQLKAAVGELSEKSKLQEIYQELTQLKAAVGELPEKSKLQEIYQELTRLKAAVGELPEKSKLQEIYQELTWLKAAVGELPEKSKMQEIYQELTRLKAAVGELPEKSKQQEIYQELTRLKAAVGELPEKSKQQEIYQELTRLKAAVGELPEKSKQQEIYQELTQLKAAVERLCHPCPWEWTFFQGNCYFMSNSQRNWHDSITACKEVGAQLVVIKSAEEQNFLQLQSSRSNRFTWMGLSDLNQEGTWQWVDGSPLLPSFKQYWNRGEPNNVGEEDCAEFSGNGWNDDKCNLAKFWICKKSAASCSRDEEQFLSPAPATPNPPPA

CC[C@H](C)[C@H](NC(=O)CNC(=O)[C@H](CCCCN)NC(=O)[C@H](CCCCN)NC(=O)[C@H](Cc1c[nH]c2ccccc12)NC(=O)[C@@H](N)CSSC[C@H](NC(=O)[C@H](CCCNC(=N)N)NC(=O)[C@H](CCCCNC(C)=O)NC(=O)[C@H](CCCNC(=N)N)NC(=O)[C@H](CCCCNC(C)=O)NC(=O)[C@H](CCCNC(=N)N)NC(=O)[C@H](CCCCNC(C)=O)NC(=O)[C@H](CCCNC(=N)N)NC(=O)[C@H](CCCCNC(C)=O)NC(=O)[C@@H](N)Cc1c[nH]c2ccccc12)C(=O)O)C(=O)NCC(=O)N[C@@H](C)C(=O)N[C@H](C(=O)N[C@@H](CC(C)C)C(=O)N[C@@H](CCCCN)C(=O)N[C@H](C(=O)N[C@@H](CC(C)C)C(=O)N[C@H](C(=O)N[C@H](C(=O)NCC(=O)N[C@@H](CC(C)C)C(=O)N1CCC[C@H]1C(=O)N[C@@H](C)C(=O)N[C@@H](CC(C)C)C(=O)N[C@H](C(=O)N[C@@H](CO)C(=O)N[C@@H](CC(C)C)C(=O)N[C@H](C(=O)N[C@@H](CCCCN)C(=O)N[C@@H](CCCNC(=N)N)C(=O)N[C@@H](CCCCN)C(=O)N[C@@H](CCCNC(=N)N)C(=O)N[C@@H](CCC(N)=O)C(=O)N[C@@H](CCC(N)=O)C(=O)O)[C@@H](C)CC)[C@@H](C)CC)[C@@H](C)O)[C@@H](C)O)C(C)C)C(C)C [poly(Lys(Ac)-Arg)4-SS-melittin]
EC50 (Erythrocytes; RBC hemolysis at pH 5.0, second value of the cell (pH 7.4:5.0), read-out: HL50 (μM) pH 5.0): 7.7 µM | EC50 (Erythrocytes; RBC hemolysis at pH 7.4, first value of the cell (pH 7.4:5.0), read-out: HL50 (μM) pH 7.4): 5.6 µM | Particle Size (nm) [1]: 177 nm | gene transfer, fold less active than poly(Acr-Arg)4-SS-melittin [2]: 100-1000 fold

CKacrKKacrC: cysteine-flanked acridinylated peptide, Kacr = lysine modified with acridine at the ε-amine; SEQ ID NO: 103 (CK(Acr)KK(Acr)C; cysteine pairing not given here)
affinity for DNA (DNA): higher affinity for DNA

CKacrRKacrC: cysteine-flanked acridinylated peptide, SEQ ID NO: 104 (CK(Acr)RK(Acr)C; cysteine pairing not given here)
affinity for DNA (DNA): higher affinity for DNA

Man 9 glycopeptide (Man9GlcNAc2-Asn-Tyr-propionate maleimide conjugated to Cys-(Acr-Lys)4)
in vitro gene transfer (luciferase expression) in CHO (+) versus CHO (-) cells [3]: 100 fold | fold fluorescence intensity, CHO (+) over CHO (-) cells [4]: 10 fold | fold fluorescence intensity (cell uptake), CHO (+) over CHO (-) cells [5]: 10 to 50 fold

Man 9 glycopeptide: high mannose N-glycan Man 9 Mal (Tyr, propionate maleimide) conjugated to Cys-(Acr-Lys)4
stoichiometry at which the band shift was complete (pGL3 [6]): ≥ 0.4 nmol of glycopeptide per μg of DNA | thiazole orange displacement, asymptote / equivalence point for polyplex formation (pGL3 [7]): 0.4 nmol per μg of DNA | cell uptake (fluorescence intensity), CHO (+) over CHO (−) cells [8]: 10-50 fold and ~10 fold

poly-CKacrKKacrC: disulfide polymer of CKacrKKacrC formed by buffered incubation at pH 8.0 (CK(Acr)KK(Acr)C; also: disulfide polymer formed at pH 8.0)
affinity for DNA (DNA): greater affinity of the polymer for DNA than the monomer

— patent US20120035320A1, “POLYACRIDINE NUCLEIC ACID DELIVERY PEPTIDE COMPLEXES” (University of Iowa Research Foundation, priority 2010, published 2012)
